Assay results reported in US10053468B2, “Heterocyclic compound” (TAKEDA PHARMACEUTICAL COMPANY LIMITED, priority 2013, dated 2018).
Read-outs that look alike come from different tables or passages of the source.

Key:
RORγt [1] = target: T1, RORγt (Homo sapiens, UniProt P51449); experiment: RORγt binding test using fluorescent-labeled cholesterol (TR-FRET); details: read-out: Binding inhibitory rate of fluorescent-labeled cholesterol to RORγt at test compound 1 μM (%)
T1 sequence (P51449 1-497 isoform P51449-2): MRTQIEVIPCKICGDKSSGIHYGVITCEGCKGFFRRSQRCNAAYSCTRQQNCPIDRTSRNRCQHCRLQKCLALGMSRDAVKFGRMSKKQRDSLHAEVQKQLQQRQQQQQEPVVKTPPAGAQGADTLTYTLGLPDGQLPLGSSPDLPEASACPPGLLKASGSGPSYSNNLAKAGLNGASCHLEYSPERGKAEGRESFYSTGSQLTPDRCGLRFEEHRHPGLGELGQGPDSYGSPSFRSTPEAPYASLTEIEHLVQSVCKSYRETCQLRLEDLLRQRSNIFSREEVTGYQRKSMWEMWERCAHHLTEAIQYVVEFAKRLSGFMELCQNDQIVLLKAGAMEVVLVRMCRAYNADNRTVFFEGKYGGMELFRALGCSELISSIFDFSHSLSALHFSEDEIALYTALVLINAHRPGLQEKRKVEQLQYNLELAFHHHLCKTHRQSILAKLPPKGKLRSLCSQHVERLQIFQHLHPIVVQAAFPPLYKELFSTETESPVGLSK
Method: RORγt Binding Test Using Fluorescent-labeled Cholesterol
The binding activity of the test compound to RORγt was measured by a time resolved fluorescence resonance energy transfer method (TR-FRET) utilizing histidine-tagged RORγt, fluorescent-labeled cholesterol (BODIPY-cholesterol, AVIVA), and terbium-labeled anti-histidine tag antibody (Invitrogen). First, a test compound diluted with an assay buffer (20 mM Tris-HCl (pH 7.5), 100 mM NaCl, 1 mM DTT, 0.1% BSA) was added to a 384 well plate by 3 μL. Then, RORγt diluted with an assay buffer to 240 nM was added by 3 μL, after which fluorescent-labeled cholesterol diluted with the assay buffer to 12 μM was added by 3 μL, and the mixture was stood at room temperature for 20 min. Thereafter, a terbium-labeled anti-histidine tag antibody diluted with the assay buffer to 8 nM was added by 3 μL. The mixture was stood at room temperature for 20 min, and fluorescence intensity (excitation wavelength 320 nm, fluorescence wavelength 520 nm, delay time 100 microseconds) was measured by Envision (PerkinElmer).

RORγt [2] = target: T1, RORγt; experiment: Cofactor recruitment test (Alpha Screen, biotinylated SRC-1 peptide); assay type: biochemical; details: read-out: Signal value inhibitory rate at test compound 1 μM (%)
Method: Cofactor Recruitment Test
Cofactor recruitment test was performed by Alpha Screen (Histidine Detection Kit, PerkinElmer) method. First, a test compound was diluted with an assay buffer (50 mM Tris-HCl (pH 7.5), 50 mM KCl, 1 mM DTT, 0.1% BSA) and added to a 384 well plate by 5 μL. […] The mixture was stood in a dark place for 1 hr, and the signal value was measured by Envision (PerkinElmer).

RORγt [3] = target: T1, RORγt; experiment: Jurkat reporter test (human IL-17 ROR response element luciferase, RORγt vector); assay type: cell-based; details: read-out: Luminescence level inhibitory rate at test compound 3 μM (%)
Method: The Jurkat cells used for the reporter test were cultured in a culture medium (RPMI (Invitrogen), 10% FCS (AusGeneX), 100 U/mL penicillin, 100 μg/mL streptomycin). On the day of the test, 4×10^7 cells were recovered by a centrifugal operation (1000 rpm, 5 min.) and suspended in PBS (phosphate buffered saline) (Invitrogen). Thereafter, the cells were recovered again by a centrifugal operation, and suspended in 2 mL of R buffer (NEON transfection kit, Invitrogen). […] Gene transfer was performed by Electroporation apparatus (NEON, Invitrogen) under the conditions of pulse voltage 1350 V, interval 10 milliseconds, number of times 3. The cells after gene transfer were suspended in 40 mL of a reaction medium (RPMI, 10% Lipid reduced FCS (HyClone), 10 mM HEPES (pH 7.5), 100 U/mL penicillin, 100 μg/mL streptomycin, 5 μM lovastatin), and plated in a 96 well plate by 90 μL. A test compound diluted with the reaction medium was added by 10 μL, and the cells were cultured overnight in an incubator. Bright-Glo (Promega) was added by 100 μL, and the mixture was stirred at room temperature for 10 min, and the luminescence level was measured by Envision (PerkinElmer).

[4] = test compound 3 μM, Jurkat cells

inhibition at 1 µM (RORγt [1]) [%] | inhibition at 1 µM (RORγt [2]) [%] | inhibition at 3 µM (RORγt [3]; [4]) [%] | Structure (SMILES) | inhibition at 3 µM (RORγt [3]; Jurkat) [%]
100 | 76 | 90 | COc1ccc2c(c1)CCN(C(=O)CCCC(=O)O)[C@H]2C(=O)Nc1cc(F)c(C(C)(C)COCC2CC2)c(F)c1 [Example 161, 5-((1R)-1-((4-(1-(cyclopropylmethoxy)-2-methylpropan-2-yl)-3,5-difluorophenyl)carbamoyl)-6-methoxy-3,4-dihydroisoquinolin-2 (1H)-yl)-5-oxopentanoic acid] | 
101 | 89.9 | 103 | COc1ccc2c(c1)CCN(C(=O)Cc1ccc(OC)nc1)[C@H]2C(=O)Nc1ccc(C(C)(C)C)c(F)c1 [Example 32, (1R)-N-(4-tert-butyl-3-fluorophenyl)-6-methoxy-2-((6-methoxypyridin-3-yl)acetyl)-1,2,3,4-tetrahydroisoquinoline-1-carboxamide] | 
101 | 91 | 100 | COc1ccc2c(n1)CCN(C(=O)c1cc(O)no1)[C@H]2C(=O)Nc1ccc(C(C)(C)C)c(F)c1 [Example 77, (5R)-N-(4-tert-butyl-3-fluorophenyl)-6-((3-hydroxy-1,2-oxazol-5-yl)carbonyl)-2-methoxy-5,6,7,8-tetrahydro-1,6-naphthyridine-5-carboxamide] | 
102 | 88 | 102 | COc1ccc2c(c1)CCN(C(=O)Cn1cnccc1=O)[C@H]2C(=O)Nc1ccc(C(C)(C)C)c(F)c1 [Example 29, (1R)-N-(4-tert-butyl-3-fluorophenyl)-6-methoxy-2-((6-oxopyrimidin-1(6H)-yl)acetyl)-1,2,3,4-tetrahydroisoquinoline-1-carboxamide] | 
102 | 92 | 100 | CCOc1ccc2c(n1)CCN(C(=O)c1cc(O)no1)[C@H]2C(=O)Nc1cc(F)c2c(c1)CCC2(C)C [Example 145, (5R)-2-ethoxy-N-(7-fluoro-1,1-dimethyl-2,3-dihydro-1H-inden-5-yl)-6-((3-hydroxy-1,2-oxazol-5-yl)carbonyl)-5,6,7,8-tetrahydro-1,6-naphthyridine-5-carboxamide] | 
103 | 98.3 | 98.6 | CCOC(=O)C(C)(C)c1ccc(NC(=O)C2c3ccc(OC)cc3CCN2C(=O)c2cc(O)no2)cc1F (stereo not drawn) [Example 37, ethyl 2-(2-fluoro-4-(((2-((3-hydroxy-1,2-oxazol-5-yl)carbonyl)-6-methoxy-1,2,3,4-tetrahydroisoquinolin-1-yl)carbonyl)amino)phenyl)-2-methylpropanoate] | 
102 | 83.2 | 101 | COc1ccc2c(c1)CCN(C(=O)Cc1nnc(C)o1)[C@H]2C(=O)Nc1ccc(C(C)(C)C)c(F)c1 [Example 28, (1R)-N-(4-tert-butyl-3-fluorophenyl)-6-methoxy-2-((5-methyl-1,3,4-oxadiazol-2-yl)acetyl)-1,2,3,4-tetrahydroisoquinoline-1-carboxamide] | 
102 | 73.4 | 100 | CCOc1ccc2c(c1)CCN(C(=O)Cc1cc(O)no1)C2C(=O)Nc1cc(F)c2c(c1)CCC2(C)C (stereo not drawn) [Example 55, 6-ethoxy-N-(7-fluoro-1,1-dimethyl-2,3-dihydro-1H-inden-5-yl)-2-((3-hydroxy-1,2-oxazol-5-yl)acetyl)-1,2,3,4-tetrahydroisoquinoline-1-carboxamide] | 
98.9 | 43.8 | 98.8 | COc1ccc2c(c1)CCN(C(=O)c1cc(O)no1)C2C(=O)Nc1ccc(C(C)(C)C)c(Cl)c1 (stereo not drawn) [Example 10, N-(4-tert-butyl-3-chlorophenyl)-2-((3-hydroxy-1,2-oxazol-5-yl)carbonyl)-6-methoxy-1,2,3,4-tetrahydroisoquinoline-1-carboxamide] | 
99 | 82 | 95 | COc1ccc2c(c1)CCN(C(=O)CCCC(=O)O)[C@H]2C(=O)Nc1cc(F)c(C(C)(C)COCC(F)F)c(F)c1 [Example 162, 5-((1R)-1-((4-(1-(2,2-difluoroethoxy)-2-methylpropan-2-yl)-3,5-difluorophenyl)carbamoyl)-6-methoxy-3,4-dihydroisoquinolin-2(1H)-yl)-5-oxopentanoic acid] | 

Structure (SMILES) | inhibition at 1 µM (RORγt [1]) [%] | inhibition at 1 µM (RORγt [2]) [%] | inhibition at 3 µM (RORγt [3]; [4]) [%] | inhibition at 3 µM (RORγt [3]; Jurkat) [%]
CC[Si](C)(C)c1c(F)cc(NC(=O)[C@H]2c3ccc(COC)nc3CCN2C(=O)Cc2cc(O)no2)cc1F [Example 173, (5R)-N-(4-(ethyl (dimethyl)silyl)-3,5-difluorophenyl)-6-((3-hydroxy-1,2-oxazol-5-yl)acetyl)-2-(methoxymethyl)-5,6,7,8-tetrahydro-1,6-naphthyridine-5-carboxamide] | 101 | 97 |  | 99
COc1ccc2c(c1)CCN(C(=O)c1ccc(=O)[nH]c1)C2C(=O)Nc1ccc([Si](C)(C)C)c(F)c1 (stereo not drawn) [Example 4, N-(3-fluoro-4-(trimethylsilyl)phenyl)-6-methoxy-2-((6-oxo-1,6-dihydropyridin-3-yl)carbonyl)-1,2,3,4-tetrahydroisoquinoline-1-carboxamide] | 101 | 81.9 |  | 99.7
CCOc1ccc2c(n1)CCN(C(=O)Cc1cc(O)no1)[C@H]2C(=O)Nc1cc(F)c([Si](C)(C)C)c(F)c1 [Example 128, (5R)-N-(3,5-difluoro-4-(trimethylsilyl)phenyl)-2-ethoxy-6-((3-hydroxy-1,2-oxazol-5-yl)acetyl)-5,6,7,8-tetrahydro-1,6-naphthyridine-5-carboxamide] | 103 | 100 |  | 103
CC[Si](C)(C)c1c(F)cc(NC(=O)[C@H]2c3ccc(COC)nc3CCN2C(=O)c2cc(O)no2)cc1F [Example 174, (5R)-N-(4-(ethyl (dimethyl)silyl)-3,5-difluorophenyl)-6-((3-hydroxy-1,2-oxazol-5-yl)carbonyl)-2-(methoxymethyl)-5,6,7,8-tetrahydro-1,6-naphthyridine-5-carboxamide] | 101 | 88 |  | 98
CC[Si](C)(C)c1c(F)cc(NC(=O)[C@H]2c3ccc(OC)nc3CCN2C(=O)Cc2cc(O)no2)cc1F [Example 113, (5R)-N-(4-(ethyl (dimethyl)silyl)-3,5-difluorophenyl)-6-((3-hydroxy-1,2-oxazol-5-yl)acetyl)-2-methoxy-5,6,7,8-tetrahydro-1,6-naphthyridine-5-carboxamide] | 104 | 99 |  | 101
COc1ccc2c(c1)CCN(C(=O)c1ccc(=O)[nH]c1)[C@H]2C(=O)Nc1ccc([Si](C)(C)C)c(F)c1 [Example 8, (1R)-N-(3-fluoro-4-(trimethylsilyl)phenyl)-6-methoxy-2-((6-oxo-1,6-dihydropyridin-3-yl)carbonyl)-1,2,3,4-tetrahydroisoquinoline-1-carboxamide] | 102 | 81.2 |  | 101
